Type in all cases: cell-based
Holding throughout (conditions): reduction of AT-mediated invasion, losartan 2 uM

The subject of assay [1] is BT549 breast cancer cells. The experiment in a line: Matrigel cell invasion assay, BT549.
Assay [2] relates to 578T breast cancer cells. The experiment in a line: Matrigel cell invasion assay, 578T.
Assay [3] relates to MCF-7 breast cancer cells. The experiment in a line: Matrigel cell invasion assay, MCF7.
For assay [4], the system named is H16N2 immortalized benign breast epithelial cell line. Kind of assay: Matrigel cell invasion assay, H16N2.
The test system of assay [5] is DU145 prostate cancer cells. The experiment in a line: Matrigel cell invasion assay, DU145.

For the compound `CCCCc1nc(Cl)c(CO)n1Cc1ccc(-c2ccccc2-c2nn[nH]n2)cc1` [Lo, Losartan], the “Lo (2 uM) % Red.” value in assay [1] is given as 72.4%; in assay [1] (listed as losartan), 72%; in assay [2], 67.9%; in assay [2] (listed as losartan) it was 68%; in assay [3], 56.7%; in assay [4] it was 16.7%. Further, the “Lo (2 uM) % Red.” value in assay [5] amounted to 35.0%.

The values above are taken from patent US20080207714A1, “Diagnosis And Treatment Of Breast Cancer” (THE REGENTS OF THE UNIVERSITY OF MICHIGAN, priority 2006, published 2008).
